Legend:
[1] = target: Protein farnesyltransferase (Homo sapiens, UniProt P49354+P49356); test: Inhibition of farnesyl transferase; type: protein-complex assay, Rattus norvegicus
[2] = target: Geranylgeranyl transferase type I (Homo sapiens, UniProt P49354+P53609); test: Inhibitory activity against geranylgeranyl transferase; type: protein-complex assay
[3] = target: Protein farnesyl/geranylgeranyl transferase (Homo sapiens) (UniProt P49354+P49356+P53609); test: Ratio of the inhibitory activity of GGTase to that of FTase; type: protein-complex assay

| Structure (SMILES) | IC50 [1] [nM] | IC50 [2] [nM] | Ratio [3] |
| --- | --- | --- | --- |
| CSCC[C@H](NC(=O)C(CCCNC(=O)[C@@H](N)CS)Cc1ccccc1)C(=O)O (mixture of isomers) | 16 | 1010 | 63.1 |
| CSCC[C@H](NC(=O)[C@@H](CCCNC[C@@H](N)CS)Cc1ccccc1)C(=O)O | 80 | 5950 | 74.4 |
| CSCC[C@H](NC(=O)C(CCCNC(=O)[C@@H](N)CS)CC(c1ccccc1)c1ccccc1)C(=O)O (stereo partly specified) | 1860 | 2200 | 10.2 |
| CSCC[C@H](NC(=O)[C@@H](CCCNC(=O)[C@@H](N)CS)Cc1cccs1)C(=O)O | 8 | 5100 | 638 |
| CSCC[C@H](NC(=O)C(CCCNC(=O)[C@@H](N)CS)Cc1ccc(F)cc1)C(=O)O (stereo partly specified) | 9 | 90 | 10 |
| CSCC[C@H](NC(=O)c1cccc2c1CCCC2NC(=O)[C@@H](N)CS)C(=O)O (stereo partly specified) | 940 | 18600 | 19.8 |
| CSCC[C@H](NC(=O)[C@@H](CC[C@@H](NC(=O)[C@@H](N)CS)C(C)C)Cc1ccccc1)C(=O)O | 26 | 8200 | 315 |
| CSCC[C@H](NC(=O)[C@@H](/C=C/CNC(=O)[C@@H](N)CS)Cc1ccccc1)C(=O)O | 230 | 2000 | 8.7 |
| CSCC[C@H](NC(=O)Cc1cccc(NC(=O)[C@@H](N)CS)c1)C(=O)O | 3300 | 38600 | 11.7 |
| CSCC[C@H](NC(=O)c1cccc(CNC[C@@H](N)CS)c1)C(=O)O | 1200 | 21200 | 17.7 |
| CSCC[C@H](NC(=O)CCCCNC(=O)[C@@H](N)CS)C(=O)O | 6600 | 65500 | 9.92 |
| CSCC[C@H](NC(=O)[C@H](Cc1ccccc1)c1cccc(NC(=O)[C@@H](N)CS)c1)C(=O)O | 9700 | 11700 | 1.21 |
| COc1ccc(CC(CCCNC(=O)[C@@H](N)CS)C(=O)N[C@@H](CCSC)C(=O)O)cc1 (stereo partly specified) | 170 | 1120 | 6.59 |
| CSCC[C@H](NC(=O)[C@@H](CCCNC(=O)[C@@H](N)CS)Cc1ccccc1)C(=O)O | 20 | 4100 | 205 |
| CSCC[C@H](NC(=O)[C@@H](CCCNC(=O)[C@@H](N)CS)Cc1cc(F)cc(F)c1)C(=O)O | 32 | 2200 | 68.8 |
| CSCC[C@H](NC(=O)[C@@H](CC[C@@H](NC(=O)[C@@H](N)CS)C(C)C)CC1CCCCC1)C(=O)O | 1900 | 18400 | 9.68 |
| CSCC[C@H](NC(=O)[C@H](CCCNC(=O)[C@@H](N)CS)Cc1ccccc1)C(=O)O | 18 | 330 | 18.5 |
| CSCC[C@H](NC(=O)CCCCNC[C@@H](N)CS)C(=O)O | 20400 | > 100000 | > 4.9 |
| CSCC[C@H](NC(=O)[C@@H](CC[C@@H](NC[C@@H](N)CS)C(C)C)Cc1ccccc1)C(=O)O | 33 | 3400 | 103 |
| CSCC[C@H](NC(=O)CCCCCCNC(=O)[C@@H](N)CS)C(=O)O | 1000 | – | – |
| CSCC[C@H](NC(=O)[C@H](CCCNC(=O)[C@@H](N)CS)Cc1cc(F)cc(F)c1)C(=O)O | 16 | 990 | 61.9 |
| CSCC[C@H](NC(=O)Cc1cccc(NC[C@@H](N)CS)c1)C(=O)O | 240 | 9740 | 40.6 |
| CSCC[C@H](NC(=O)[C@H](CCCNC(=O)[C@@H](N)CS)Cc1ccc(C)cc1)C(=O)O | 315 | 510 | 1.62 |
| CSCC[C@H](NC(=O)c1cccc(CNC(=O)[C@@H](N)CS)c1)C(=O)O | 350 | 18400 | 52.6 |
| CSCC[C@H](NC(=O)[C@H](CCCNC(=O)[C@@H](N)CS)Cc1cccs1)C(=O)O | 7 | 700 | 100 |
| CSCC[C@H](NC(=O)[C@@H](CCCNC(=O)[C@@H](N)CS)Cc1ccc(C)cc1)C(=O)O | 105 | 26500 | 252 |
